The values that follow are results of earlier work, collected in patent publication US20170215417A1, “ANTIMICROBIAL COMPOSITIONS” (LIVIONEX, Inc., priority 2013, published 2017).

Like-named read-outs stand apart in the source and are kept apart here.

For series [1] the following is noted: @ 79° F.
Series [2] has as its system Trichomichosis axillaris polymicrobial infection. The note with it: for average time for resolution of the disease: then antimicrobial cream or lotion (Kim, Korean J Med Mycol. 2005).

With `CS(C)(=O)=O` [MSM, methylsulfonylmethane], the water solubility in series [1] is given as 34 % w/v.
As to `O=C(OOC(=O)c1ccccc1)c1ccccc1` [benzoyl peroxide], the “irritation and contact dermatitis with standard treatment” value in series [2] (standard treatment: shaving, then antimicrobial cream or lotion) is “often results in irritation and contact dermatitis”. Besides, in series [2] (standard treatment: shaving), the “average time for resolution of the disease” value is listed as 3 weeks.
On to `CC[C@H]1OC(=O)[C@H](C)[C@@H](O[C@H]2C[C@@](C)(OC)[C@@H](O)[C@H](C)O2)[C@H](C)[C@@H](O[C@@H]2O[C@H](C)C[C@H](N(C)C)[C@H]2O)[C@](C)(O)C[C@@H](C)C(=O)[C@H](C)[C@@H](O)[C@]1(C)O` [erythromycin], for which the “irritation and contact dermatitis with standard treatment” value in series [2] (human, in vivo) was “often results in irritation and contact dermatitis”. In addition, in series [2] (standard treatment: shaving), the “average time for resolution of the disease” value was 3 weeks.
